Data as given in US8329395B2 (priority 2003, dated 2012).

How the values were obtained:
[1] = system: thiA-lacZ fusion (ΩamyE::thiA-lacZ) in B. subtilis TH21; type: cell-based, Bacillus subtilis; settings: for repression of thiA-lacZ expression: 1 μM in shake-flask culture, early logarithmic phase (OD600=0.8-0.9), compared to minimal medium without thiamin; for repressing activity on thiA-lacZ expression: 1 μM each
Description: The strategy to isolate thiamin deregulated mutants of B. subtilis was to mutagenize bacteria that contained a thiA-lacZ fusion and then screen for colonies on XGAL-containing medium that were Lac^+ (i.e. blue colonies) in the presence of TPP or thiamin. A 732 bp-long DNA fragment containing 417 bp of the 5′ promoter region of thiA was prepared by PCR using standard methods and cloned unidirectionally in front of the promoterless lacZ gene of the pDG1728 vector (Guerout-Fleury et al. (1996) Gene 180:57-61), resulting in plasmid pTH12. This vector is designed to introduce ectopic transcriptional lacZ fusions into the non-essential amyE locus of B. subtilis. Plasmid pTH12 was linearized by restriction enzyme digestion and transformed into B. subtilis PY79, selecting for colonies that were resistant to 100 μg/ml spectinomycin.

[2] = system: B. subtilis PY79 gene transcripts; test: Microarray profiling of transcript levels in response to TPP; type: cell-based, Bacillus subtilis; settings: wild-type cells, exponential phase, minimal medium without TPP vs with TPP
Description: In order to perform microarray profiling, PY79 was grown in shake-flask cultures that contained 50 ml Spizizen minimal medium with or without added thiamin pyrophosphate. Overnight cultures were diluted to Klett=10 units into fresh medium and grown to exponential growth phase (Klett=100 units). Cells from half of the culture were collected by centrifugation, and the total RNA was immediately extracted as previously described (Lee et al. (2001) J. Bacteriol. 183:7371-7380). The remaining culture was grown to early stationary phase before RNA extraction. Early stationary phase was judged to be 30 min after glucose exhaustion; glucose content in the medium was measured by a glucose analyzer 2 (Beckman, Fullerton, Calif.) using standard procedures. Preparation of labeled cDNA targets, microarray hybridization and staining procedures, and data analysis are described in Lee et al. above.

SMILES: Cc1ncc(CO)c(N)n1 [HMP, 4-amino-5-hydroxymethyl-2-methylpyrimidine]
- repression of thiA-lacZ expression [1]: 6- to 7 fold

SMILES: Cc1ncc(C[n+]2csc(CCOP(=O)(O)OP(=O)(O)O)c2C)c(N)n1 [TPP, thiamin pyrophosphate]
- transcript ratio wt−vit/wt+vit, gene dxs (yqiE) [2]: n/c
- transcript ratio wt−vit/wt+vit, gene thiA [2]: 62
- transcript ratio wt−vit/wt+vit, gene thiC [2]: n/c
- transcript ratio wt−vit/wt+vit, gene thiD1 (yjbV) [2]: 32
- transcript ratio wt−vit/wt+vit, gene thiD2 [2]: n/c^b
- transcript ratio wt−vit/wt+vit, gene thiF (yjbU) [2]: 90
- transcript ratio wt−vit/wt+vit, gene thiG (yjbT) [2]: 82
- transcript ratio wt−vit/wt+vit, gene thiK [2]: n/c
- transcript ratio wt−vit/wt+vit, gene thiL (ydiA) [2]: n/c
- transcript ratio wt−vit/wt+vit, gene thiO (goxB) [2]: 67
- transcript ratio wt−vit/wt+vit, gene thiS (yjbS) [2]: 84
- transcript ratio wt−vit/wt+vit, gene ykoC [2]: 12
- transcript ratio wt−vit/wt+vit, gene ykoD [2]: 26
- transcript ratio wt−vit/wt+vit, gene ykoE [2]: 17
- transcript ratio wt−vit/wt+vit, gene ykoF [2]: 20
- transcript ratio wt−vit/wt+vit, gene ylmB [2]: 5.0
- transcript ratio wt−vit/wt+vit, gene yloS [2]: 1.6
- transcript ratio wt−vit/wt+vit, gene ytbJ [2]: n/c
- transcript ratio wt−vit/wt+vit, gene yuaA [2]: 7.4

SMILES: Nc1ncnc2c1ncn2[C@@H]1O[C@H](CO)[C@@H](O)[C@H]1O [adenosine]
- repressing activity on thiA-lacZ expression [1]: showed repressing activity

SMILES: Cc1ncc(C[n+]2csc(CCO)c2C)c(N)n1 [thiamin]
- repression of thiA-lacZ expression [1]: approximately 80 fold

SMILES: c1cscn1 [thiazole]
- repressing activity on thiA-lacZ expression [1]: showed repressing activity
